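Following 48 hours of exposure in 96-well plates, responses at five concentrations were used to interpolate endpoints linearly. At the GI50, growth is halved. TGI denotes the concentration required for complete inhibition of growth.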

The results in this text go back to PubChem BioAssay (NCI).

What all share (test): NCI-60 cell line screen, 48 h
Assay [1] relates to CCRF-CEM leukemia.
The test system of assay [2] is OVCAR-3 ovarian.
In assay [3] the test system is MDA-N.
Assay [4] relates to COLO 205 colon.
Assay [5] concerns SK-MEL-2 melanoma.
Assay [6] relates to 786-0 renal.
The subject of assay [7] is UACC-257 melanoma.
In assay [8] the test system is HOP-92 NSCLC.
In assay [9] the test system is K-562 leukemia.
Assay [10] concerns RXF 393 renal.
The subject of assay [11] is SNB-75 CNS.

For `CS(=O)(=O)Nc1ccc(N2Cc3cnc4ccc5[nH]ccc2c5c34)cc1`, the TGI in [1] was > 100 µM; in assay [2] it was 32.2 µM; in assay [3] it was 29.3 µM; in assay [4], 32.2 µM; in assay [5], 31.7 µM; in assay [6] it was 40.3 µM. Besides, the TGI came to 31.8 µM in [7], 63.6 µM in assay [8] and 38.7 µM in [9].

For `N#CSC#Cc1ccc(C#CSC#N)cc1`, the TGI was 35.7 µM in assay [10]; > 100 µM in assay [1]; 39.7 µM in assay [2]; 34.5 µM in assay [3]; 34.6 µM in assay [4]; 38.8 µM in assay [5]. The TGI in assay [6] is 33.5 µM; in assay [7], 33.8 µM; in assay [8] it was 26 µM; in assay [9] it was > 100 µM.

Regarding `O/N=C1/COC(C(F)(F)F)(C(F)(F)F)C1`, the TGI in assay [10], in assay [2], in [4], in assay [5], in assay [6] and in [7] was > 100 µM throughout. For the same compound, the TGI in assay [8] and in [11] was > 100 µM each time.

For `COc1ccc(C2CC(c3cccc(Nc4ccncc4)c3)=NN2c2cc(Cl)cc(Cl)c2)cc1` (stereo not drawn), the GI50 is 2.81 µM in assay [1]; 1.81 µM in [2]; 2.36 µM in assay [5]; 2.16 µM in assay [7]; 1.25 µM in assay [8]; 2.09 µM in [11]. Also, the GI50 in [9] is 2.41 µM. The TGI was > 100 µM in assay [1]; 3.35 µM in [2]; 5.02 µM in assay [5]; 4.92 µM in assay [7]; 2.67 µM in assay [8]; 11.7 µM in assay [11]. In addition, the TGI in assay [9] turned out to be 5.57 µM.

As to `COc1cc(C[S+]2CCCC2)c(SC)cc1C[S+]1CCCC1`, the TGI in assay [10], in assay [1], in [2], in assay [4], in [5] and in assay [6] was > 100 µM throughout. The TGI in [7], in assay [8], in assay [11] and in [9] was > 100 µM in each case.

Take `O=C(c1ccc(O)cc1)C1c2c3c(cc(O)c2C(c2ccc(O)cc2)C1c1cc(O)cc(O)c1)OC(c1ccc(O)cc1)C3c1cc2c(cc1O)OC(c1ccc(O)cc1)C2c1cc(O)cc(O)c1` (stereo not drawn): the TGI in assay [1], in assay [2], in [4], in assay [5], in assay [6] and in assay [7] was > 12.5 µM in each case. Besides, the TGI in assay [8], in assay [11] and in assay [9] was > 12.5 µM each time.

In the case of `Cc1ccc(/C=N/n2c(=O)[nH]c3ccccc3c2=O)cc1`, the TGI in assay [1], in assay [2], in [3], in [4], in assay [5] and in assay [6] was > 100 µM in each case. In addition, the TGI in [7], in assay [8] and in assay [9] was > 100 µM each time.

`CCc1nc(N)nc(N)c1-c1ccc(Cl)c(Cl)c1`: the TGI in [10], in assay [1], in assay [2], in assay [4], in [5] and in assay [6] was > 100 µM throughout. Further, the TGI in [7], in [8] and in assay [11] was > 100 µM throughout.

As for `COc1ccc(C2S/C(=C\c3ccccc3O)C(=O)N2NC(=O)Cc2ccccc2)cc1` (stereo not drawn), the TGI in [10], in [1], in [4], in assay [5], in assay [6] and in assay [7] was > 100 µM throughout. The TGI in [8], in assay [11] and in assay [9] was > 100 µM in each case.

With `CC(=O)OCCn1cnc2nc(Nc3ccccc3)nc(Cl)c21`, the TGI in assay [1] is > 100 µM; in assay [2], > 100 µM; in assay [3] it was > 100 µM; in assay [4], 88.1 µM; in [6], > 100 µM; in assay [7], > 100 µM. Besides, the values for the TGI in [8] and in assay [9] were 34.4 µM and > 100 µM, respectively.

On to `C[C@]12C=CC(=O)C=C1CC[C@H]1[C@@H]3C[C@@H](O)[C@](O)(C(=O)CO)[C@@]3(C)C[C@H](O)[C@@]12F`, for which the TGI in [10], in assay [1], in assay [2], in assay [4], in [5] and in [6] was > 100 µM each time. Further, the TGI in assay [7], in assay [8], in assay [11] and in assay [9] was > 100 µM throughout.

Regarding `O=C1OC[C@@H]2Cc3cc4c(cc3[C@H](c3ccc5c(c3)OCO5)[C@@H]12)OCO4`, the TGI is > 25 µM in [1]; > 25 µM in [2]; 21.6 µM in [3]; > 25 µM in [4]; > 25 µM in [5]; > 25 µM in [6]. In addition, the TGI in [7] and in assay [9] was > 25 µM throughout.

For the compound `Cc1nc(N)sc1-c1ccnc(Nc2ccc(N3CCOCC3)cc2)n1`, the GI50 was 0.938 µM in [10]; 1.16 µM in assay [1]; 7.37 µM in assay [2]; 0.488 µM in assay [4]; 5.16 µM in [5]; 1.38 µM in [11]. Further, in assay [9], the GI50 is 1.6 µM. Also, the TGI was 2.78 µM in assay [10]; > 100 µM in assay [1]; > 100 µM in assay [2]; > 100 µM in assay [4]; 59.3 µM in assay [5]; > 100 µM in assay [7]. In addition, the TGI was 5.57 µM in [11] and > 100 µM in assay [9].
